Reference: patent US8440672B2, “Diphenyl substituted alkanes” (Merck Sharp & Dohme Corp., priority 2006, dated 2013)
pIC50: −log10 of the molar value.

Target: T1, FLAP (Homo sapiens, UniProt P20292)
T1 construct: A 100,000×g pellet from human leukocyte 10,000×g supernatants (1) is the source of FLAP; from tissue; host or cells: human leukocytes (100,000 x g membrane pellet)
T1 sequence (P20292 1-161): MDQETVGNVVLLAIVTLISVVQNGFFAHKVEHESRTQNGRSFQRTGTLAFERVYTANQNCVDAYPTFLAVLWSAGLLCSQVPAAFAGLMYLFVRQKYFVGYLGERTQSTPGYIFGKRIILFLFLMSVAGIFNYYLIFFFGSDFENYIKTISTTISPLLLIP
Experiment: FLAP Binding Assay
Conditions: competition with radiolabelled Compound A; 100,000×g pellet membranes from human leukocyte; 20 minute incubation at room temperature
Method: A 100,000×g pellet from human leukocyte 10,000×g supernatants (1) is the source of FLAP. The 100,000×g pellet membranes were resuspended in Tris-Tween assay buffer (100 mM Tris HCl pH 7.4, 140 mM NaCl, 2 mM EDTA, 0.5 mM dithiothreitol, 5% glycerol, 0.05% Tween 20) to yield a final protein concentration of 50 μg to 150 μg/ml. Aliquots (100 μl) of membrane suspension were added to 12 mm×75 mm polypropylene tubes containing 100 μl Tris-Tween assay buffer, 30,000 cpm of Compound A in 5 μl MeOH:assay buffer (1:1), and 2 μl dimethyl sulfoxide or competitor (i.e., the compound to be tested) in dimethyl sulfoxide. Compound B (10 μM final concentration) was used to determine non-specific binding. After a 20 minute incubation at room temperature, tube contents were diluted to 4 ml with cold 0.1 M Tris HCl pH 7.4, 0.05% Tween 20 wash buffer and the membranes were collected by filtration of GFB filters presoaked in the wash buffer. Tubes and filters were rinsed with 2×4 ml aliquots of cold wash buffer. Filters were transferred to 12 mm×3.5 mm polystyrene tubes for determination of radioactivity by gamma-scintillation counting.
Specific binding is defined as total binding minus non-specific binding. Total binding was Compound A bound to membranes in the absence of competitor; non-specific binding was Compound A bound in the presence of 10 uM Compound B. Preparation of Compound A is described in reference 1, below. The IC50 values were obtained by computer analysis (see reference 2, below) of the experimental data.

pIC50	SMILES
8.68	COc1cncc(-c2ccc(C(C)(c3ccc(-c4noc(C(C)(C)O)n4)cn3)C(C)C)cc2)c1 (stereo not shown) [Example 1Ac, 2-[3-(6-{1-[4-(5-methoxypyridin-3-yl)phenyl]-1,2-dimethylpropyl}pyridin-3-yl)-1,2,4-oxadiazol-5-yl]propan-2-ol]
8.44	COc1cncc(-c2ccc(C(C)(c3ccc(-c4noc(C5(N)CC5)n4)cn3)C(C)C)cc2)c1 (stereo not shown) [Example 2b]
8.85	COc1cncc(-c2ccc(C(C)(c3ccc(-c4ccc(C(F)(F)F)nn4)cn3)C(C)C)cc2)c1 (stereo not shown) [Example 4Ad, 3-(6-{1-[4-(5-methoxypyridin-3-yl)phenyl]-1,2-dimethylpropyl}pyridin-3-yl)-6-(trifluoromethyl)pyridazine]
8.96	COc1cncc(-c2ccc(C(C)(c3ccc(-c4ccc(C(C)(C)O)nn4)cn3)C(C)C)cc2)c1 (stereo not shown) [Example 4d, 2-[6-(6-{1-[4-(5-methoxypyridin-3-yl)phenyl]-1,2-dimethylpropyl}pyridin-3-yl)pyridazin-3-yl]propan-2-ol]
9.30	CC(C)C(C)(c1ccc(-c2cnc(N)nc2)cc1)c1ccc(-c2ccc(C(C)(C)O)nn2)cn1 (stereo not shown) [Example 4f, 2-[6-(6-{1-[4-(2-aminopyrimidin-5-yl)phenyl]-1,2-dimethylpropyl}pyridin-3-yl)pyridazin-3-yl]propan-2-ol]
9.22	CC(C)C(C)(c1ccc(-c2ccc(N)nn2)cc1)c1ccc(-c2ccc(C(C)(C)O)nn2)cn1 (stereo not shown) [Example 4g, 2-[6-(6-{1-[4-(6-aminopyridazin-3-yl)phenyl]-1,2-dimethylpropyl}pyridin-3-yl)pyridazin-3-yl]propan-2-ol]
9.15	COc1cncc(-c2ccc(C(C)(c3ccc(-c4ccc(S(C)(=O)=O)nn4)cn3)C(C)C)cc2)c1 (stereo not shown) [Example 5a, 3-(6-{1-[4-(5-methoxypyridin-3-yl)phenyl]-1,2-dimethylpropyl}pyridin-3-yl)-6-(methylsulfonyl)pyridazine]
8.62	CC(C)C(C)(c1ccc(-c2cncc(OCc3ccccc3)c2)cc1)c1ccc(-c2ccc(C(F)(F)F)nn2)cn1 (stereo not shown) [Example 6Da, 3-[6-(1-{4-[5-(benzyloxy)pyridin-3-yl]phenyl}-1,2-dimethylpropyl)pyridin-3-yl]-6-(trifluoromethyl)pyridazine]
8.55	CC(C)C(C)(c1ccc(-c2cncc(OCF)c2)cc1)c1ccc(-c2ccc(C(F)(F)F)nn2)cn1 (stereo not shown) [Example 6c, 3-[6-(1-{4-[5-(fluoromethoxy)pyridin-3-yl]phenyl}-1,2-dimethylpropyl)pyridin-3-yl]-6-(trifluoromethyl)pyridazine]
8.92	CC(C)C(C)(c1ccc(-c2cnc(N)nc2)cc1)c1ccc(C(C)(C)O)cn1 (stereo not shown) [Example 7Ad, 2-(6-{1-[4-(2-aminopyrimidin-5-yl)phenyl]-1,2-dimethylpropyl}pyridin-3-yl)propan-2-ol]
8.64	CC(C)C(C)(c1ccc(-c2ccc(N)nn2)cc1)c1ccc(C(C)(C)O)cn1 (stereo not shown) [Example 7Bd, 2-(6-(1-[4-(6-aminopyridazin-3-yl)phenyl]-1,2-dimethylpropyl)pyridin-3-yl)propan-2-ol]
8.24	CC(C)(C)C(c1ccc(OCc2ccccn2)cc1)c1ccc(-c2nnc(N)o2)cn1 (stereo not shown) [Example 8a, 5-(6-{2,2-dimethyl-1-[4-(pyridin-2-ylmethoxy)phenyl]pronyl}pyridin-3-yl)-1,3,4-oxadiazol-2-amine]
7.85	Cn1nnc(-c2ccc(C(c3ccc(OCc4ccccn4)cc3)C(C)(C)C)nc2)n1 (stereo not shown) [Example 9b, 2-{2,2-dimethyl-1-[4-(pyridin-2-ylmethoxy)phenyl]propyl}-5-(2-methyl-2H-tetrazol-5-yl)pyridine]
9.15	COC(=O)c1ccc(-c2ccc(C(C)(c3ccc(OCc4ccccn4)cc3)C(C)C)nc2)nn1 (stereo not shown) [Example 10Ah, methyl 6-(6-{1,2-dimethyl-1-[4-(pyridin-2-ylmethoxy)phenyl]propyl}pyridin-3-yl)pyridazine-3-carboxylate]
9.15	CC(C)C(C)(c1ccc(OCc2ccccn2)cc1)c1ccc(-c2ccc(C(C)(C)O)nn2)cn1 (stereo not shown) [Example 10Aj, 2-[6-(6-{1,2-dimethyl-1-[4-(pyridin-2-ylmethoxy)phenyl]propyl}pyridin-3-yl)pyridazin-3-yl]propan-2-ol]
8.54	CC(C)C(C)(c1ccc(OCc2nccs2)cc1)c1ccc(-c2noc(C(C)(C)O)n2)cn1 (stereo not shown) [Example 10Ca, 2-[3-(6-{1,2-dimethyl-1-[4-(1,3-thiazol-2-ylmethoxy)phenyl]propyl}pyridin-3-yl)-1,2,4-oxadiazol-5-yl]propan-2-ol]
